Data: patent US20260347435A1, “y-SECRETASE INHIBITOR, Aß-PEPTIDE PRODUCTION INHIBITOR, AND PHARMACEUTICAL” (priority 2022, published 2026)

What was measured:
[1] = molecular target: T1, human γ-secretase complex, APP as substrate (Homo sapiens, UniProt P49768); experiment: β-galactosidase assay of γ-secretase-expressing yeast with related-art GSI, APP substrate; format: cell-based
T1 construct: substrate APPC55-Gal4, β-galactosidase reporter
Protocol: The yeast expressing the γ-secretase complex, the substrate APPC55-Gal4, and the three-finger toxin produced in the foregoing was inoculated in 1.5 mL of a SD-LWU medium, and the resultant was shake-cultured (180 rpm) at 30 °C until its turbidity became from 0.8 to 1.0. After that, the cultured product was centrifuged (15,000 rpm, 3 minutes, room temperature), and cells were recovered. The cells were washed with 1 mL of cooling water, and were then suspended in 30 μL of a Lysis buffer (20 mM Tris-HCl, pH: 8.0, 10 mM MgCl2, 50 mM KCl, 1 mM EDTA, 5% glycerol, and 1 mM DTT), followed by the addition of an appropriate amount of acid-treated glass beads (425 μm to 600 μm, Sigma-Aldrich Co. LLC) thereto. After that, the mixture was stirred with a vortex mixer so that the cells were crushed. The crushed liquid was centrifuged (15,000 rpm, 10 minutes, 4 °C) to provide a lysate. 80 Microliters of 4 mg/ml ortho-nitrophenyl-β-galactoside (ONPG) was added to the mixed liquid of 10 μL of the lysate and 400 μL of a Z buffer (60 mM Na2HPO4, 40 mM NaH2PO4-2H2O, 10 mM KCl, 1 mM MgSO4-7H2O, and 0.27% 2-mercaptoethanol) to start a reaction. […] After that, the absorbance (A420) of nitrophenol produced in the reaction liquid at 420 nm was measured. Further, the protein concentration of the lysate was determined by a Bradford method (Bio-Rad Laboratories, Inc.), and β-galactosidase activity was calculated [β-galactosidase unit/mg protein=1,000×A420/{time (min)×protein concentration (mg/μL)×liquid amount (μL)}].

γ-secretase [2] = settings: phase III clinical trials; trials stopped; cited from earlier work
γ-secretase [3] = settings: verification experiment; pseudo-inhibitor; cited from earlier work
[4] = molecular target: T2, human γ-secretase complex, Notch1 as substrate (Homo sapiens, UniProt P49768); experiment: β-galactosidase assay of γ-secretase-expressing yeast with related-art GSI, Notch substrate; format: cell-based; settings: yeast (FIG. 7)
T2 construct: substrate mouse Notch1(1704-1755)-Gal4, β-galactosidase reporter
Protocol: The yeast expressing the γ-secretase complex, the substrate Notch-Gal4, and the three-finger toxin produced in the foregoing was inoculated in 15 mL of a SD-LWU medium, and the resultant was shake-cultured (180 rpm) at 30 °C until its turbidity became from 0.8 to 1.0. After that, a 1.5 mL aliquot of the cultured product was dispensed and centrifuged (15,000 rpm, 3 minutes, room temperature), and cells were recovered. The cells were washed with 1 mL of cooling water, and were then suspended in 30 μL of a Lysis buffer (20 mM Tris-HCl, pH: 8.0, 10 mM MgCl2, 50 mM KCl, 1 mM EDTA, 5% glycerol, and 1 mM DTT), followed by the addition of an appropriate amount of acid-treated glass beads (425 μm to 600 μm, Sigma-Aldrich Co. LLC) thereto. After that, the mixture was stirred with a vortex mixer so that the cells were crushed. The crushed liquid was centrifuged (15,000 rpm, 10 minutes, 4 °C) to provide a lysate. […] After that, the absorbance (A420) of nitrophenol produced in the reaction liquid at 420 nm was measured. Further, the protein concentration of the lysate was determined by a Bradford method (Bio-Rad Laboratories, Inc.), and β-galactosidase activity was calculated: β-galactosidase unit/mg protein=1,000×A420/{time (min)×protein concentration (mg/μL)×liquid amount (μL)}.

O=S(=O)(N[C@H](CO)C(C(F)(F)F)C(F)(F)F)c1ccc(Cl)s1 [begacestat]
suppression of the cleavage of the APP versus the cleavage of the Notch ([1]; 1 μM, 3 μM, and 10 μM, wild-type yeast and pdr1Δpdr3Δ strain, vs mock with dimethyl sulfoxide (FIG. 7)): the suppression of the cleavage of the APP was stronger than the suppression of the cleavage of the Notch | APP-specific cleavage-suppressing effect ([1]; yeast, APP versus Notch cleavage (FIG. 7)): APP-specific inhibition by begacestat was observed

NC(=O)[C@@H](CCC(F)(F)F)N(Cc1ccc(-c2ncon2)cc1F)S(=O)(=O)c1ccc(Cl)cc1 [avagacestat]
serious side effects and deterioration of a cognitive function (γ-secretase [2]): serious side effects and the deterioration of a cognitive function were observed

CC(C)[C@H](O)C(=O)N[C@@H](C)C(=O)N[C@@H]1C(=O)N(C)CCc2ccccc21 [semagacestat]
serious side effects and deterioration of a cognitive function (γ-secretase [2]): serious side effects and the deterioration of a cognitive function were observed | discharge of a decomposition product to the outside of a cell (γ-secretase [3]): inhibits the discharge of a decomposition product to the outside of a cell | inhibition of Aβ production (γ-secretase [3]): does not inhibit Aβ production

C[C@H](NC(=O)Cc1cc(F)cc(F)c1)C(=O)N[C@H](C(=O)OC(C)(C)C)c1ccccc1 [DAPT]
suppression of the cleavage of the APP ([1]; yeast (FIG. 7)): suppressed the cleavage of each of the APP and the Notch | suppression of the cleavage of the Notch [4]: suppressed the cleavage of each of the APP and the Notch
